{
  "source": "ChEMBL document CHEMBL3112549",
  "about": "(Bioorg Med Chem Lett, 2014)",
  "key": {"[1]": {"target": "Vascular endothelial growth factor receptor 2 (Homo sapiens, UniProt P35968)", "sequence (P35968 whole entry)": "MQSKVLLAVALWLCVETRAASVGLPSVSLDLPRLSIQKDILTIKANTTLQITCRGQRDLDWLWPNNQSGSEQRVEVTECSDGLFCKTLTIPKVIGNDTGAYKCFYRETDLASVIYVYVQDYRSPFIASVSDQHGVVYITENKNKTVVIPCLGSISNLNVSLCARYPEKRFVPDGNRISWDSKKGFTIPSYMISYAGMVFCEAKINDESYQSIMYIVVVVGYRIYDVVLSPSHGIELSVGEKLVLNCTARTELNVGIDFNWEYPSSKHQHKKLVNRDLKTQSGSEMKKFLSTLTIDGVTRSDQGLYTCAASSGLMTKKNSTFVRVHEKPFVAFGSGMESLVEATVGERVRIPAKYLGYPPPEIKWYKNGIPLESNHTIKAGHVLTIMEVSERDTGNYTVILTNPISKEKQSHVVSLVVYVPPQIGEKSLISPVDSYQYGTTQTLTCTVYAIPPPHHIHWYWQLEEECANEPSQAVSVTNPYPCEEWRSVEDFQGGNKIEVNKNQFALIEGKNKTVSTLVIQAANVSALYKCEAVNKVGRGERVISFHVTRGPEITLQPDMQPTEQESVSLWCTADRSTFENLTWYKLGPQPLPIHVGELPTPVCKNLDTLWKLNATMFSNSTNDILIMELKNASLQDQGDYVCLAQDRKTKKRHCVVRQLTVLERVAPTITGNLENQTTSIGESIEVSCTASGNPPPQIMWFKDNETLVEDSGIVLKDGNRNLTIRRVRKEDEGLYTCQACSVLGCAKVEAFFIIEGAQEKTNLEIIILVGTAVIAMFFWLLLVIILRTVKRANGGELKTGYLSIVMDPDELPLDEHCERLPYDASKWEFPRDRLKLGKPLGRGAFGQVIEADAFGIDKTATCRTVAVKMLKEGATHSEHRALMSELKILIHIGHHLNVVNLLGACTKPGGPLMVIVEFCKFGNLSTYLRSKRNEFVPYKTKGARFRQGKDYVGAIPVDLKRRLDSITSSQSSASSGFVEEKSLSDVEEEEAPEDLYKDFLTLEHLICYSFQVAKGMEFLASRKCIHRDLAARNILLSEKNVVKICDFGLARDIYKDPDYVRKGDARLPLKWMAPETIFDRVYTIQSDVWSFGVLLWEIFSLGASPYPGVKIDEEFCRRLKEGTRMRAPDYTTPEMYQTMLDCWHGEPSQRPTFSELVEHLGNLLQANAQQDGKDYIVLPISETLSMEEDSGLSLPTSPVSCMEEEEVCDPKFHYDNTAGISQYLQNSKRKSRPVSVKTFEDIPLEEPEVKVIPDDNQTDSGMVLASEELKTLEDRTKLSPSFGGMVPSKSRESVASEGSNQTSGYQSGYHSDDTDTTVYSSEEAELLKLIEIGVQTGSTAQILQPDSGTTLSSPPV", "assay": "Inhibition of VEGFR-2 tyrosine kinase (unknown origin) after 30 mins by HTRF method"}, "[2]": {"target": "Mast/stem cell growth factor receptor Kit (Homo sapiens, UniProt P10721)", "sequence (P10721 whole entry)": "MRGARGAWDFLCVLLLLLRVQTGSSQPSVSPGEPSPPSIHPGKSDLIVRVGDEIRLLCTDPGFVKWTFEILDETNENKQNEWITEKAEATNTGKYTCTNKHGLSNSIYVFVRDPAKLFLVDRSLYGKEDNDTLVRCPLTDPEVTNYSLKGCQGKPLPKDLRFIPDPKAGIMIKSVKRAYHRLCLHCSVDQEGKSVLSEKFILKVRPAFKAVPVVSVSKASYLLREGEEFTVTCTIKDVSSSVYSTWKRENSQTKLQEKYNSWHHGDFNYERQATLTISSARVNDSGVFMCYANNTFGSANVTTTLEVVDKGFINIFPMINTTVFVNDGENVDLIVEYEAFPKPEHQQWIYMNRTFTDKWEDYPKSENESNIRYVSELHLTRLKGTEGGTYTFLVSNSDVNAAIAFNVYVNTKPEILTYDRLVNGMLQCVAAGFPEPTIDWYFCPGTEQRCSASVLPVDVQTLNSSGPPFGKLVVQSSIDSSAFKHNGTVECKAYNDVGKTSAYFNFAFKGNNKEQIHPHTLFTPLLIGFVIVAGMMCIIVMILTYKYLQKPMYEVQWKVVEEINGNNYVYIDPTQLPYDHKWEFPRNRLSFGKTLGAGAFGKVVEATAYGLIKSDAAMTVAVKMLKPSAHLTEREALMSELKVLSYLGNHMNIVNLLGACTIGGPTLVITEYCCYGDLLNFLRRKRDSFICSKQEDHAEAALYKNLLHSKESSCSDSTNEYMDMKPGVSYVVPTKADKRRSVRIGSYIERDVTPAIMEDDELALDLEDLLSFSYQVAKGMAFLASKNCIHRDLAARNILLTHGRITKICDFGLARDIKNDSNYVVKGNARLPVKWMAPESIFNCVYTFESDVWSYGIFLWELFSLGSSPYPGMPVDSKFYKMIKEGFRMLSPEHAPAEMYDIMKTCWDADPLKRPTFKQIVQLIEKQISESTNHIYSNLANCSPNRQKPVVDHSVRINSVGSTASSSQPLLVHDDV", "assay": "Inhibition of c-KIT tyrosine kinase (unknown origin) after 30 mins by HTRF method"}},
  "data": [
    {"compound": "Cc1c2ccc(N(C)c3ccnc(Nc4cccc(F)c4)n3)cc2nn1C", "values": [
      {"measurement": "IC50", "setting": "[1]", "value": 78, "unit": "nM"},
      {"measurement": "IC50", "setting": "[2]", "value": 102, "unit": "nM"}
    ]},
    {"compound": "Cc1c2ccc(N(C)c3ccnc(Nc4cccc(Br)c4)n3)cc2nn1C", "values": [
      {"measurement": "IC50", "setting": "[1]", "value": 64, "unit": "nM"},
      {"measurement": "IC50", "setting": "[2]", "value": 98, "unit": "nM"}
    ]},
    {"compound": "Cc1c2ccc(N(C)c3ccnc(Nc4cccc(Cl)c4)n3)cc2nn1C", "values": [
      {"measurement": "IC50", "setting": "[1]", "value": 25, "unit": "nM"},
      {"measurement": "IC50", "setting": "[2]", "value": 80, "unit": "nM"}
    ]},
    {"compound": "COc1cccc(Nc2nccc(N(C)c3ccc4c(C)n(C)nc4c3)n2)c1", "values": [
      {"measurement": "IC50", "setting": "[1]", "value": 38, "unit": "nM"},
      {"measurement": "IC50", "setting": "[2]", "value": 72, "unit": "nM"}
    ]},
    {"compound": "Cc1cccc(Nc2nccc(N(C)c3ccc4c(C)n(C)nc4c3)n2)c1", "values": [
      {"measurement": "IC50", "setting": "[1]", "value": 42, "unit": "nM"},
      {"measurement": "IC50", "setting": "[2]", "value": 87, "unit": "nM"}
    ]},
    {"compound": "Cc1cc(C)cc(Nc2nccc(N(C)c3ccc4c(C)n(C)nc4c3)n2)c1", "values": [
      {"measurement": "IC50", "setting": "[1]", "value": 21, "unit": "nM"},
      {"measurement": "IC50", "setting": "[2]", "value": 40, "unit": "nM"}
    ]},
    {"compound": "CSc1ccc(Nc2nccc(N(C)c3ccc4c(C)n(C)nc4c3)n2)cc1", "values": [
      {"measurement": "IC50", "setting": "[1]", "value": 51, "unit": "nM"},
      {"measurement": "IC50", "setting": "[2]", "value": 71, "unit": "nM"}
    ]},
    {"compound": "Cc1c2ccc(N(C)c3ccnc(Nc4ccc(OC(F)(F)F)cc4)n3)cc2nn1C", "values": [
      {"measurement": "IC50", "setting": "[1]", "value": 72, "unit": "nM"},
      {"measurement": "IC50", "setting": "[2]", "value": 89, "unit": "nM"}
    ]},
    {"compound": "CN(c1ccc2cn(C)nc2c1)c1ccnc(Nc2cccc(F)c2)n1", "values": [
      {"measurement": "IC50", "setting": "[1]", "value": 93, "unit": "nM"},
      {"measurement": "IC50", "setting": "[2]", "value": 96, "unit": "nM"}
    ]},
    {"compound": "CN(c1ccc2cn(C)nc2c1)c1ccnc(Nc2cccc(Cl)c2)n1", "values": [
      {"measurement": "IC50", "setting": "[1]", "value": 72, "unit": "nM"},
      {"measurement": "IC50", "setting": "[2]", "value": 72, "unit": "nM"}
    ]},
    {"compound": "COc1cccc(Nc2nccc(N(C)c3ccc4cn(C)nc4c3)n2)c1", "values": [
      {"measurement": "IC50", "setting": "[1]", "value": 108, "unit": "nM"},
      {"measurement": "IC50", "setting": "[2]", "value": 77, "unit": "nM"}
    ]},
    {"compound": "CN(c1ccc2cn(C)nc2c1)c1ccnc(Nc2ccc(OC(F)(F)F)cc2)n1", "values": [
      {"measurement": "IC50", "setting": "[1]", "value": 12, "unit": "nM"},
      {"measurement": "IC50", "setting": "[2]", "value": 83, "unit": "nM"}
    ]},
    {"compound": "Cc1cc(C)cc(Nc2nccc(N(C)c3ccc4cn(C)nc4c3)n2)c1", "values": [
      {"measurement": "IC50", "setting": "[1]", "value": 28, "unit": "nM"},
      {"measurement": "IC50", "setting": "[2]", "value": 61, "unit": "nM"}
    ]}
  ]
}
